Measurements: patent publication US20250154105A1, “POLYCYCLIC COMPOUND AND USE THEREOF” (TYK MEDICINES, INC., priority 2021, published 2025)

Columns and labels:
[1] = test system: human pleural mesothelioma cells NCI-H226; assay: Cell anti-proliferation experiment (CCK8), NCI-H226; assay type: cell-based
Outline: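 Viability was measured by CCK-8 (3 h, A450) after 3-day treatment with 0.15–333.33 nM compound in 0.1% DMSO medium. Curve-fitted IC50 was based on viability normalised to no-drug and cell-free controls.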

YAP-TEAD = YAP-TEAD inhibitor activity by Nano luciferase method (8xGTiiC-nLuc reporter in 293T cells); assay type: cell-based; settings: Homo sapiens, HEK-293T, 48 hours incubation, read-out: Nano-luciferase detection (IC50)
Outline: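 293T cells transiently transfected with pGL3B-8xGTiiC-nLuc-CMV-fLuc, seeded 2000 cells/well, then treated 48 h at 37 °C with compounds in 1:3.16 dilution series (top 10,000 nM). Nano luciferase signal read after cell lysis; IC50 from percent of 0 nM control.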

IC50 [1] [nM]	IC50 (YAP-TEAD) [nM]	Compound
≤ 1000	≤ 1000	C[C@H](NC(=O)c1ccc2c(c1)c1csc(F)c1c(=O)n2-c1ccc(C(F)(F)F)cc1)c1ccccn1 [Example T-299]
≤ 1000	≤ 1000	C[C@H](NC(=O)c1ccc2c(c1)c1csc(Cl)c1c(=O)n2-c1ccc(C(F)(F)F)cc1)c1ccccn1 [Example T-300]
≤ 1000	≤ 1000	C[C@H](NC(=O)c1ccc2c(c1)c1c(Cl)scc1c(=O)n2-c1ccc(C(F)(F)F)cc1)c1ccccn1 [Example T-301]
≤ 1000	≤ 1000	C[C@H](NC(=O)c1ccc2c(c1)c1c(c(=O)n2-c2ccc(C(F)(F)F)cc2)CCCC1F)c1ccccn1 (some centres unmarked) [Example T-302]
≤ 1000	≤ 1000	C[C@H](NC(=O)c1ccc2c(c1)c1c(c(=O)n2-c2ccc(C(F)(F)F)cc2)CCC(F)C1)c1ccccn1 (some centres unmarked) [Example T-303]
≤ 1000	≤ 1000	C[C@H](NC(=O)c1ccc2c(c1)c1c(c(=O)n2-c2ccc(C(F)(F)F)cc2)CCCC1(F)F)c1ccccn1 [Example T-306]
≤ 1000	≤ 1000	C[C@H](NC(=O)c1ccc2c(c1)c1c(c(=O)n2-c2ccc(C(F)(F)F)cc2)CCC(F)(F)C1)c1ccccn1 [Example T-307]
≤ 1000	≤ 1000	C[C@H](NC(=O)c1ccc2c(c1)c1cc(Cl)ccc1c(=O)n2-c1ccc(C(F)(F)F)cc1)c1ccccn1 [Example T-311]
≤ 1000	≤ 1000	COc1ccc2c(=O)n(-c3ccc(C(F)(F)F)cc3)c3ccc(C(=O)N[C@@H](C)c4ccccn4)cc3c2c1 [Example T-315]
≤ 1000	≤ 1000	C[C@H](NC(=O)c1ccc2c(c1)c1c(C#N)cccc1c(=O)n2-c1ccc(C(F)(F)F)cc1)c1ccccn1 [Example T-318]
≤ 1000	≤ 1000	C[C@H](NC(=O)c1ccc2c(c1)c1cc(C#N)ccc1c(=O)n2-c1ccc(C(F)(F)F)cc1)c1ccccn1 [Example T-319]
≤ 1000	≤ 1000	C[C@H](NC(=O)c1ccc2c(c1)c1ccc(C#N)cc1c(=O)n2-c1ccc(C(F)(F)F)cc1)c1ccccn1 [Example T-320]
≤ 1000	≤ 1000	C[C@H](NC(=O)c1ccc2c(c1)c1cccc(C#N)c1c(=O)n2-c1ccc(C(F)(F)F)cc1)c1ccccn1 [Example T-321]
≤ 1000	≤ 1000	CNS(=O)(=O)c1ccc2c(c1)c1nn(C)cc1c(=O)n2-c1cc(F)cc(F)c1 [Example T-322]
≤ 1000	≤ 1000	C=C1c2cn(C)nc2-c2cc(C(=O)N[C@@H](C)c3ccccn3)ccc2N1c1ccc(C(F)(F)F)cc1 [Example T-324]
≤ 1000	≤ 1000	C[C@H](NC(=O)c1ccc2c(c1)-c1nn(C)cc1[C@@H](C)N2c1ccc(C(F)(F)F)cc1)c1ccccn1 [Example T-326]
≤ 1000	≤ 1000	C[C@H](NC(=O)c1ccc2c(c1)-c1nn(C)cc1[C@H](C)N2c1ccc(C(F)(F)F)cc1)c1cccc(N)n1 [Example T-327]
≤ 1000	≤ 1000	C[C@H](NC(=O)c1ccc2c(c1)c1csnc1c(=O)n2-c1ccc(C(F)(F)F)cc1)c1ccccn1 [Example T-328]
≤ 1000	≤ 1000	C[C@H](NC(=O)c1ccc2c(c1)c1nscc1c(=O)n2-c1ccc(C(F)(F)F)cc1)c1ccccn1 [Example T-329]
≤ 1000	≤ 1000	C[C@H](NC(=O)c1ccc2c(c1)c1ncsc1c(=O)n2-c1ccc(C(F)(F)F)cc1)c1ccccn1 [Example T-330]
≤ 1000	≤ 1000	C[C@H](NC(=O)c1ccc2c(c1)c1scnc1c(=O)n2-c1ccc(C(F)(F)F)cc1)c1ccccn1 [Example T-331]
≤ 1000	≤ 1000	C[C@H](NC(=O)c1ccc2c(c1)c1ncncc1c(=O)n2-c1ccc(C(F)(F)F)cc1)c1ccccn1 [Example T-332]
≤ 1000	≤ 1000	C[C@H](NC(=O)c1ccc2c(c1)c1cncnc1c(=O)n2-c1ccc(C(F)(F)F)cc1)c1ccccn1 [Example T-333]
≤ 1000	≤ 1000	C[C@H](NC(=O)c1ccc2c(c1)c1nnccc1c(=O)n2-c1ccc(C(F)(F)F)cc1)c1ccccn1 [Example T-334]
≤ 1000	≤ 1000	C[C@H](NC(=O)c1ccc2c(c1)c1cnncc1c(=O)n2-c1ccc(C(F)(F)F)cc1)c1ccccn1 [Example T-335]
≤ 1000	≤ 1000	C[C@H](NC(=O)c1ccc2c(c1)c1ccnnc1c(=O)n2-c1ccc(C(F)(F)F)cc1)c1ccccn1 [Example T-336]
≤ 1000	≤ 1000	C[C@H](NC(=O)c1ccc2c(c1)c1nccnc1c(=O)n2-c1ccc(C(F)(F)F)cc1)c1ccccn1 [Example T-337]
1000 to 5000	1000 to 5000	Cc1scc2c(=O)n(-c3ccc(C(F)(F)F)cc3)c3ncc(C(=O)N[C@@H](C)c4ccccn4)cc3c12 [Example T-372]

IC50 [1] [nM]	IC50 (YAP-TEAD) [nM]	Compound
1000 to 5000	1000 to 5000	Cc1scc2c1c(=O)n(-c1ccc(C(F)(F)F)cc1)c1ncc(C(=O)N[C@@H](C)c3ccccn3)cc21 [Example T-373]
≤ 1000	≤ 1000	C[C@H](NC(=O)c1cnc2c(c1)c1cocc1c(=O)n2-c1ccc(C(F)(F)F)cc1)c1ccccn1 [Example T-374]
≤ 1000	≤ 1000	Cc1occ2c(=O)n(-c3ccc(C(F)(F)F)cc3)c3ncc(C(=O)N[C@@H](C)c4ccccn4)cc3c12 [Example T-375]
≤ 1000	≤ 1000	Cc1occ2c1c(=O)n(-c1ccc(C(F)(F)F)cc1)c1ncc(C(=O)N[C@@H](C)c3ccccn3)cc21 [Example T-376]
≤ 1000	≤ 1000	C[C@H](NC(=O)c1cnc2c(c1)c1sccc1c(=O)n2-c1ccc(C(F)(F)F)cc1)c1ccccn1 [Example T-377]
≤ 1000	≤ 1000	C[C@H](NC(=O)c1cnc2c(c1)c1ccsc1c(=O)n2-c1ccc(C(F)(F)F)cc1)c1ccccn1 [Example T-378]
≤ 1000	≤ 1000	C[C@H](NC(=O)c1ccc2c(n1)c1cscc1c(=O)n2-c1ccc(C(F)(F)F)cc1)c1ccccn1 [Example T-384]
≤ 1000	≤ 1000	Cc1scc2c(=O)n(-c3ccc(C(F)(F)F)cc3)c3ccc(C(=O)N[C@@H](C)c4ccccn4)nc3c12 [Example T-385]
≤ 1000	≤ 1000	Cc1scc2c1c(=O)n(-c1ccc(C(F)(F)F)cc1)c1ccc(C(=O)N[C@@H](C)c3ccccn3)nc21 [Example T-386]
≤ 1000	≤ 1000	C[C@H](NC(=O)c1ccc2c(n1)c1c(Cl)scc1c(=O)n2-c1ccc(C(F)(F)F)cc1)c1ccccn1 [Example T-387]
≤ 1000	≤ 1000	C[C@H](NC(=O)c1ccc2c(n1)c1csc(Cl)c1c(=O)n2-c1ccc(C(F)(F)F)cc1)c1ccccn1 [Example T-388]
≤ 1000	≤ 1000	C[C@H](NC(=O)c1ccc2c(n1)c1cocc1c(=O)n2-c1ccc(C(F)(F)F)cc1)c1ccccn1 [Example T-389]
≤ 1000	≤ 1000	C[C@H](NC(=O)c1ccc2c(c1)c1ocnc1c(=O)n2-c1ccc(C(F)(F)F)cc1)c1ccccn1 [Example T-391]
≤ 1000	≤ 1000	C[C@H](NC(=O)c1ccc2c(c1)c1nocc1c(=O)n2-c1ccc(C(F)(F)F)cc1)c1ccccn1 [Example T-395]
≤ 1000	≤ 1000	C[C@H](NC(=O)c1ccc2c(c1)c1ncoc1c(=O)n2-c1ccc(C(F)(F)F)cc1)c1ccccn1 [Example T-396]
≤ 1000	≤ 1000	C[C@@H](NC(=O)c1ccc2c(c1)c1cscc1c(=O)n2-c1ccc(C(F)(F)F)cc1)c1cccc(N)n1 [Example T-397]
1000 to 5000	1000 to 5000	C[C@H](NC(=O)c1cnc2c(c1)c1cscc1c(=O)n2-c1ccc(C(F)(F)F)nn1)c1ccccn1 [Example T-398]
≤ 1000	≤ 1000	C[C@H](NC(=O)c1ccc2c(c1)c1ccccc1c(=O)n2-c1ccc(C(F)(F)F)cc1)c1cccc(N)n1 [Example T-399]
≤ 1000	≤ 1000	C[C@H](NC(=O)c1cnc2c(c1)c1ccoc1c(=O)n2-c1ccc(C(F)(F)F)cc1)c1ccccn1 [Example T-400]
≤ 1000	≤ 1000	CCn1cc2c(=O)n(-c3ccc(C(F)(F)F)cc3)c3ncc(C(=O)N[C@@H](C)c4ccccn4)cc3c2n1 [Example T-401]
≤ 1000	≤ 1000	C[C@H](NC(=O)c1ccc2c(n1)c1ccccc1c(=O)n2-c1ccc(C(F)(F)F)cc1)c1ccccn1 [Example T-403]
≤ 1000	≤ 1000	Cc1cc2c(=O)n(-c3ccc(C(F)(F)F)cc3)c3ncc(C(=O)N[C@@H](C)c4ccccn4)cc3c2s1 [Example T-404]
≤ 1000	≤ 1000	C[C@H](NC(=O)c1cnc2c(c1)c1sc(Cl)c(Br)c1c(=O)n2-c1ccc(C(F)(F)F)cc1)c1ccccn1 [Example T-405]
≤ 1000	≤ 1000	C[C@H](NC(=O)c1cnc2c(c1)c1cnccc1c(=O)n2-c1ccc(C(F)(F)F)cc1)c1ccccn1 [Example T-406]
≤ 1000	≤ 1000	C[C@H](NC(=O)c1cnc2c(c1)c1cc(F)ccc1c(=O)n2-c1ccc(C(F)(F)F)cc1)c1ccccn1 [Example T-407]
≤ 1000	≤ 1000	Cc1ccc2c(=O)n(-c3ccc(C(F)(F)F)cc3)c3ncc(C(=O)N[C@@H](C)c4ccccn4)cc3c2c1 [Example T-408]
≤ 1000	≤ 1000	C[C@H](NC(=O)c1cnc2c(c1)c1nscc1c(=O)n2-c1ccc(C(F)(F)F)cc1)c1cccc(N)n1 [Example T-409]
